Tested on: anticorps anti-nef
Experiment: ELISA for detection of anti-nef antibodies on coated peptides or nef
Format: binding, humain
Conditions: for nombre de sérums anti-nef positifs ayant réagi: out of 31 anti-nef positive sera; for intensité de l'immunoréactivité (OD), Serum 1: Serum 1, anti-nef positive; for intensité de l'immunoréactivité (OD), Serum 1 / intensité de l'immunoréactivité (OD), Serum 2 / intensité de l'immunoréactivité (OD), Serum 3 / intensité de l'immunoréactivité (OD), Serum 4 / intensité de l'immunoréactivité (OD), Serum 5 / intensité de l'immunoréactivité (OD), Serum 6 / intensité de l'immunoréactivité (OD), Serum 7 / intensité de l'immunoréactivité (OD), Serum 8 / intensité de l'immunoréactivité (OD), Serum 9 / intensité de l'immunoréactivité (OD), Serum 10 / intensité de l'immunoréactivité (OD), Serum 11 / intensité de l'immunoréactivité (OD), Serum 12 / intensité de l'immunoréactivité (OD), Serum 13 / intensité de l'immunoréactivité (OD), Serum 14 / intensité de l'immunoréactivité (OD), Serum 15 / intensité de l'immunoréactivité (OD), Serum 16 / intensité de l'immunoréactivité (OD), Serum 17 / intensité de l'immunoréactivité (OD), Serum 18 / intensité de l'immunoréactivité (OD), Serum 19 / intensité de l'immunoréactivité (OD), Serum 20 / intensité de l'immunoréactivité (OD), Serum 21 / intensité de l'immunoréactivité (OD), Serum 22 / intensité de l'immunoréactivité (OD), Serum 23 / intensité de l'immunoréactivité (OD), Serum 24 / intensité de l'immunoréactivité (OD), Serum 25 / intensité de l'immunoréactivité (OD), Serum 26 / intensité de l'immunoréactivité (OD), Serum 27 / intensité de l'immunoréactivité (OD), Serum 28 / intensité de l'immunoréactivité (OD), Serum 29 / intensité de l'immunoréactivité (OD), Serum 30 / intensité de l'immunoréactivité (OD), Serum 31 / intensité de l'immunoréactivité (OD), Serum 32 / intensité de l'immunoréactivité (OD), Serum 33: 500 ng coated per well; for intensité de l'immunoréactivité (OD), Serum 2: Serum 2, anti-nef positive; for intensité de l'immunoréactivité (OD), Serum 3: Serum 3, anti-nef positive; for intensité de l'immunoréactivité (OD), Serum 4: Serum 4, anti-nef positive; for intensité de l'immunoréactivité (OD), Serum 5: Serum 5, anti-nef positive; for intensité de l'immunoréactivité (OD), Serum 6: Serum 6, anti-nef positive; for intensité de l'immunoréactivité (OD), Serum 7: Serum 7, anti-nef positive; for intensité de l'immunoréactivité (OD), Serum 8: Serum 8, anti-nef positive; for intensité de l'immunoréactivité (OD), Serum 9: Serum 9, anti-nef positive; for intensité de l'immunoréactivité (OD), Serum 10: Serum 10, anti-nef positive; for intensité de l'immunoréactivité (OD), Serum 11: Serum 11, anti-nef positive; for intensité de l'immunoréactivité (OD), Serum 12: Serum 12, anti-nef positive; for intensité de l'immunoréactivité (OD), Serum 13: Serum 13, anti-nef positive; for intensité de l'immunoréactivité (OD), Serum 14: Serum 14, anti-nef positive; for intensité de l'immunoréactivité (OD), Serum 15: Serum 15, anti-nef positive; for intensité de l'immunoréactivité (OD), Serum 16: Serum 16, anti-nef positive; for intensité de l'immunoréactivité (OD), Serum 17: Serum 17, anti-nef positive; for intensité de l'immunoréactivité (OD), Serum 18: Serum 18, anti-nef positive; for intensité de l'immunoréactivité (OD), Serum 19: Serum 19, anti-nef positive; for intensité de l'immunoréactivité (OD), Serum 20: Serum 20, anti-nef positive; for intensité de l'immunoréactivité (OD), Serum 21: Serum 21, anti-nef positive; for intensité de l'immunoréactivité (OD), Serum 22: Serum 22, anti-nef positive; for intensité de l'immunoréactivité (OD), Serum 23: Serum 23, anti-nef positive; for intensité de l'immunoréactivité (OD), Serum 24: Serum 24, anti-nef positive; for intensité de l'immunoréactivité (OD), Serum 25: Serum 25, anti-nef positive; for intensité de l'immunoréactivité (OD), Serum 26: Serum 26, anti-nef positive; for intensité de l'immunoréactivité (OD), Serum 27: Serum 27, anti-nef positive; for intensité de l'immunoréactivité (OD), Serum 28: Serum 28, anti-nef positive; for intensité de l'immunoréactivité (OD), Serum 29: Serum 29, anti-nef positive; for intensité de l'immunoréactivité (OD), Serum 30: Serum 30, anti-nef positive; for intensité de l'immunoréactivité (OD), Serum 31: Serum 31, anti-nef positive; for intensité de l'immunoréactivité (OD), Serum 32: Serum 32, anti-nef negative control serum; for intensité de l'immunoréactivité (OD), Serum 33: Serum 33, anti-nef negative control serum
Experimental: Des plaques de microtitration à 96 puits ont été recouvertes une nuit avec 500 ng de protéine nef bactérienne, à 37°C ou avec 500 ng de peptides synthétiques par puits dans 50µl de PBS à pH 7,4. Après saturation avec 400 µl de PBS pH 7,4, contenant 5% de caséine, durant 1 heure à 37°C et lavage avec PBS à pH 7,4, 0,5% de BSA, 0,01% tween, 50 µl de sérums à différentes dilutions ont été ajoutés pendant 2 heures à 37°C. Après le rinçage, 50µl de complexes d'IgG de souris anti-humaine-(H + L)-peroxydase 1:1000 ont été incubés pendant 1 heure à 37°C. Après un nouveau rinçage, 100µl de OPD ont été ajoutés pendant 30mn à température ambiante dans l'obscurité. La réaction de l'enzyme a été arrêtée par addition de 50µl d'acide sulfurique 4N et la densité optique des plaques a été lue à 492 nm/620 nm. Les plaques recouvertes avec la caséine ont été utilisées comme contrôle négatif.
En vue d'étudier la possibilité d'utiliser des peptides synthétiques en tant qu'antigènes pour la détection d'anticorps anti-nef chez des patients infectés par HIV, 8 peptides synthétiques couvrant la totalité de la séquence de la protéine nef de HIV-1 (figure 4) ont été utilisés dans un test ELISA avec 31 sérums anti-nef positifs et 2 sérums anti-nef négatifs utilisés comme contrôle. Les recombinants nef ont été utilisés comme contrôle positif dans les tests ELISA et la caséine a été utilisée comme contrôle négatif. Les résultats de ces expériences sont donnés dans le tableau 4 qui illustre l'essai suivant: Essai ELISA sur 31 sérums anti-nef-positifs et 2 sérums anti-nef- négatifs, soit pré-recouverts avec des peptides synthétiques (PF 11 à PF 18), soit en utilisant nef, la caséine ou un mélange de peptides PF 12 et PF 17. Les sérums ont été sélectionnés au hasard parmi des sérums anti-nef positifs et anti-nefs négatifs testés par la méthode RIA en utilisant ¹²⁵I nef. L'intensité de l'immunoradioactivité est notée "-" pour une densité optique (OD) inférieure à 0,2; "+" pour OD = 0,2 à 0,4; "++" pour OD = 0,4 à 0,8 et "+++" pour OD = 0,8 à 2,0.

Sequence	nombre de sérums anti-nef positifs ayant réagi (ELISA)	intensité de l'immunoréactivité (OD), Serum 1	intensité de l'immunoréactivité (OD), Serum 2	intensité de l'immunoréactivité (OD), Serum 3	intensité de l'immunoréactivité (OD), Serum 4	intensité de l'immunoréactivité (OD), Serum 5	intensité de l'immunoréactivité (OD), Serum 6	intensité de l'immunoréactivité (OD), Serum 7	intensité de l'immunoréactivité (OD), Serum 8	intensité de l'immunoréactivité (OD), Serum 9	intensité de l'immunoréactivité (OD), Serum 10	intensité de l'immunoréactivité (OD), Serum 11	intensité de l'immunoréactivité (OD), Serum 12	intensité de l'immunoréactivité (OD), Serum 13	intensité de l'immunoréactivité (OD), Serum 14	intensité de l'immunoréactivité (OD), Serum 15	intensité de l'immunoréactivité (OD), Serum 16	intensité de l'immunoréactivité (OD), Serum 17	intensité de l'immunoréactivité (OD), Serum 18	intensité de l'immunoréactivité (OD), Serum 19	also measured
XCGYFPDWQNYTPGPGVRYPLTFGWCYKLVPVEPDKVEEANKGENTSLL HPVZ [PF15, protéine F HIV-1, séquence 118-167]	4	- (pour une densité optique (OD) inférieure à 0,2)	- (pour une densité optique (OD) inférieure à 0,2)	- (pour une densité optique (OD) inférieure à 0,2)	- (pour une densité optique (OD) inférieure à 0,2)	+ (pour OD = 0,2 à 0,4)	+ (pour OD = 0,2 à 0,4)	- (pour une densité optique (OD) inférieure à 0,2)	- (pour une densité optique (OD) inférieure à 0,2)	- (pour une densité optique (OD) inférieure à 0,2)	- (pour une densité optique (OD) inférieure à 0,2)	- (pour une densité optique (OD) inférieure à 0,2)	- (pour une densité optique (OD) inférieure à 0,2)	- (pour une densité optique (OD) inférieure à 0,2)	- (pour une densité optique (OD) inférieure à 0,2)	- (pour une densité optique (OD) inférieure à 0,2)	- (pour une densité optique (OD) inférieure à 0,2)	- (pour une densité optique (OD) inférieure à 0,2)	- (pour une densité optique (OD) inférieure à 0,2)	++ (pour OD = 0,4 à 0,8)	intensité de l'immunoréactivité (OD), Serum 20: - (pour une densité optique (OD) inférieure à 0,2); intensité de l'immunoréactivité (OD), Serum 21: - (pour une densité optique (OD) inférieure à 0,2); intensité de l'immunoréactivité (OD), Serum 22: ++ (pour OD = 0,4 à 0,8); intensité de l'immunoréactivité (OD), Serum 23: - (pour une densité optique (OD) inférieure à 0,2); intensité de l'immunoréactivité (OD), Serum 24: - (pour une densité optique (OD) inférieure à 0,2); intensité de l'immunoréactivité (OD), Serum 25: - (pour une densité optique (OD) inférieure à 0,2); intensité de l'immunoréactivité (OD), Serum 26: - (pour une densité optique (OD) inférieure à 0,2); intensité de l'immunoréactivité (OD), Serum 27: - (pour une densité optique (OD) inférieure à 0,2); intensité de l'immunoréactivité (OD), Serum 28: - (pour une densité optique (OD) inférieure à 0,2); intensité de l'immunoréactivité (OD), Serum 29: - (pour une densité optique (OD) inférieure à 0,2); intensité de l'immunoréactivité (OD), Serum 30: - (pour une densité optique (OD) inférieure à 0,2); intensité de l'immunoréactivité (OD), Serum 31: - (pour une densité optique (OD) inférieure à 0,2); intensité de l'immunoréactivité (OD), Serum 32: - (pour une densité optique (OD) inférieure à 0,2); intensité de l'immunoréactivité (OD), Serum 33: - (pour une densité optique (OD) inférieure à 0,2)
XCKGGLEGLIHSQRRQDILDLWIYHTQGYFPDZ [PF18]	10	- (pour une densité optique (OD) inférieure à 0,2)	- (pour une densité optique (OD) inférieure à 0,2)	- (pour une densité optique (OD) inférieure à 0,2)	- (pour une densité optique (OD) inférieure à 0,2)	+ (pour OD = 0,2 à 0,4)	+ (pour OD = 0,2 à 0,4)	- (pour une densité optique (OD) inférieure à 0,2)	- (pour une densité optique (OD) inférieure à 0,2)	- (pour une densité optique (OD) inférieure à 0,2)	- (pour une densité optique (OD) inférieure à 0,2)	- (pour une densité optique (OD) inférieure à 0,2)	- (pour une densité optique (OD) inférieure à 0,2)	- (pour une densité optique (OD) inférieure à 0,2)	- (pour une densité optique (OD) inférieure à 0,2)	- (pour une densité optique (OD) inférieure à 0,2)	- (pour une densité optique (OD) inférieure à 0,2)	- (pour une densité optique (OD) inférieure à 0,2)	++ (pour OD = 0,4 à 0,8)	+ (pour OD = 0,2 à 0,4)	part des sérums anti-nef positifs avec immunoréactivité significative (ELISA, 31 anti-nef positive sera): 1/3; intensité de l'immunoréactivité (OD), Serum 20: + (pour OD = 0,2 à 0,4); intensité de l'immunoréactivité (OD), Serum 21: +++ (pour OD = 0,8 à 2,0); intensité de l'immunoréactivité (OD), Serum 22: +++ (pour OD = 0,8 à 2,0); intensité de l'immunoréactivité (OD), Serum 23: - (pour une densité optique (OD) inférieure à 0,2); intensité de l'immunoréactivité (OD), Serum 24: ++ (pour OD = 0,4 à 0,8); intensité de l'immunoréactivité (OD), Serum 25: + (pour OD = 0,2 à 0,4); intensité de l'immunoréactivité (OD), Serum 26: - (pour une densité optique (OD) inférieure à 0,2); intensité de l'immunoréactivité (OD), Serum 27: - (pour une densité optique (OD) inférieure à 0,2); intensité de l'immunoréactivité (OD), Serum 28: - (pour une densité optique (OD) inférieure à 0,2); intensité de l'immunoréactivité (OD), Serum 29: - (pour une densité optique (OD) inférieure à 0,2); intensité de l'immunoréactivité (OD), Serum 30: +++ (pour OD = 0,8 à 2,0); intensité de l'immunoréactivité (OD), Serum 31: - (pour une densité optique (OD) inférieure à 0,2); intensité de l'immunoréactivité (OD), Serum 32: - (pour une densité optique (OD) inférieure à 0,2); intensité de l'immunoréactivité (OD), Serum 33: - (pour une densité optique (OD) inférieure à 0,2)

From patent publication EP0349354A1, “Peptides PF10 to PF19 from a retro virus HIV, method for the synthesis of these peptides and their use, particularly in diagnostics” (INSTITUT PASTEUR, priority 1988, dated 1990)
